Measurements taken from the supplement of paper PMC10307832.

Tests used:
Experiment in all cases: relative viability (nuclei count vs DMSO), 5 days (fraction); higher = more cells survive
[1] = compound: CN(C)C(=N)NC(=N)N [Metformin] + Cc1cc(Nc2cc(N3CCN(C)CC3)nc(Sc3ccc(NC(=O)C4CC4)cc3)n2)n[nH]1 [Tozasertib] (partner 0.1 µM)
How it was run: (§1)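 Five library-drug doses in √10 steps were combined with a fixed anchor-drug dose, or a single drug was given alone, by pin tool to lung cancer cell lines in 1536-well plates the day after seeding. Nuclei were stained and counted after 5 days. Relative viability is the nuclei count in treated wells over that in vehicle wells, taken as the median of duplicate plates.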

[2] = compound: N#CC1(c2ccc(NC(=O)c3cccnc3NCc3ccncc3)cc2)CCCC1 [Apatinib] + CC(=O)c1c(C)c2cnc(Nc3ccc(N4CCNCC4)cn3)nc2n(C2CCCC2)c1=O [Palbociclib] (partner 0.5 µM)
How it was run: as §1

[3] = compound: N#CC1(c2ccc(NC(=O)c3cccnc3NCc3ccncc3)cc2)CCCC1 [Apatinib] + CC1(C)CCC(c2ccc(Cl)cc2)=C(CN2CCN(c3ccc(C(=O)NS(=O)(=O)c4ccc(N[C@H](CCN5CCOCC5)CSc5ccccc5)c(S(=O)(=O)C(F)(F)F)c4)cc3)CC2)C1 [Navitoclax] (partner 0.5 µM)
How it was run: as §1

[4] = compound: N#CC1(c2ccc(NC(=O)c3cccnc3NCc3ccncc3)cc2)CCCC1 [Apatinib] + C[C@]1(O)C[C@@H](c2nc(-c3ccc4ccc(-c5ccccc5)nc4c3)c3c(N)nccn32)C1 [Linsitinib] (partner 1 µM)
How it was run: as §1

Cell Line NCI-H3122 has a relative viability ([1]; first compound 10 µM) of 0.248, a relative viability ([1]; first compound 31.62 µM) of 0.31 and a relative viability ([1]; first compound 100 µM) of 0.388. It also gave a relative viability ([1]; first compound 316.23 µM) of 0.255, a relative viability ([1]; first compound 1000 µM) of 0.209 and a relative viability ([2]; first compound 0.08 µM) of 0.186. The relative viability ([2]; first compound 0.253 µM) was 0.231, the relative viability ([2]; first compound 0.8 µM) was 0.191 and the relative viability ([2]; first compound 2.53 µM) was 0.23. For the same cell line, the relative viability ([2]; first compound 8 µM) was 0.228, the relative viability ([3]; first compound 0.08 µM) was 1.07 and the relative viability ([3]; first compound 0.253 µM) was 0.965. It also gave a relative viability ([3]; first compound 0.8 µM) of 1.01, a relative viability ([3]; first compound 2.53 µM) of 1.08 and a relative viability ([3]; first compound 8 µM) of 1.04. For the same cell line, the relative viability ([4]; first compound 0.08 µM) was 0.996, the relative viability ([4]; first compound 0.253 µM) was 1.03 and the relative viability ([4]; first compound 0.8 µM) was 0.983. It also gave a relative viability ([4]; first compound 2.53 µM) of 1.05 and a relative viability ([4]; first compound 8 µM) of 0.911.

Work on LOU-NH91 yielded a relative viability ([1]; first compound 10 µM) of 0.595, a relative viability ([1]; first compound 31.62 µM) of 0.633 and a relative viability ([1]; first compound 100 µM) of 0.703. The relative viability ([1]; first compound 316.23 µM) was 0.633, the relative viability ([1]; first compound 1000 µM) was 0.65 and the relative viability ([2]; first compound 0.08 µM) was 0.549. For the same cell line, the relative viability ([2]; first compound 0.253 µM) was 0.508, the relative viability ([2]; first compound 0.8 µM) was 0.526 and the relative viability ([2]; first compound 2.53 µM) was 0.58. The relative viability ([2]; first compound 8 µM) was 0.531, the relative viability ([3]; first compound 0.08 µM) was 0.692 and the relative viability ([3]; first compound 0.253 µM) was 0.744. It also gave a relative viability ([3]; first compound 0.8 µM) of 0.517, a relative viability ([3]; first compound 2.53 µM) of 0.565 and a relative viability ([3]; first compound 8 µM) of 0.58. It also gave a relative viability ([4]; first compound 0.08 µM) of 0.94, a relative viability ([4]; first compound 0.253 µM) of 0.916 and a relative viability ([4]; first compound 0.8 µM) of 0.717. The relative viability ([4]; first compound 2.53 µM) was 0.845 and the relative viability ([4]; first compound 8 µM) was 0.777.

IA-LM was tested, and the relative viability ([3]; first compound 0.08 µM) was 0.947, the relative viability ([3]; first compound 0.253 µM) was 0.709 and the relative viability ([3]; first compound 0.8 µM) was 0.633. The relative viability ([3]; first compound 2.53 µM) was 0.352, the relative viability ([3]; first compound 8 µM) was 0.208 and the relative viability ([4]; first compound 0.08 µM) was 0.56. The relative viability ([4]; first compound 0.253 µM) was 0.383, the relative viability ([4]; first compound 0.8 µM) was 0.763 and the relative viability ([4]; first compound 2.53 µM) was 0.417. The relative viability ([4]; first compound 8 µM) was 0.341.

With ABC-1 the relative viability ([1]; first compound 10 µM) was 0.223, the relative viability ([1]; first compound 31.62 µM) was 0.163 and the relative viability ([1]; first compound 100 µM) was 0.172. The relative viability ([1]; first compound 316.23 µM) was 0.158, the relative viability ([1]; first compound 1000 µM) was 0.189 and the relative viability ([2]; first compound 0.253 µM) was 1.02. It also gave a relative viability ([2]; first compound 0.8 µM) of 0.663, a relative viability ([2]; first compound 2.53 µM) of 0.531 and a relative viability ([2]; first compound 8 µM) of 0.583. It also gave a relative viability ([4]; first compound 0.253 µM) of 0.861, a relative viability ([4]; first compound 0.8 µM) of 0.869 and a relative viability ([4]; first compound 2.53 µM) of 0.839. For the same cell line, the relative viability ([4]; first compound 8 µM) was 0.882.

Work on ChaGo-K-1 yielded a relative viability ([1]; first compound 10 µM) of 0.254, a relative viability ([1]; first compound 31.62 µM) of 0.281 and a relative viability ([1]; first compound 100 µM) of 0.246. It also gave a relative viability ([1]; first compound 316.23 µM) of 0.202, a relative viability ([1]; first compound 1000 µM) of 0.22 and a relative viability ([2]; first compound 0.08 µM) of 0.993. For the same cell line, the relative viability ([2]; first compound 0.253 µM) was 1.04, the relative viability ([2]; first compound 0.8 µM) was 0.908 and the relative viability ([2]; first compound 2.53 µM) was 0.9. The relative viability ([2]; first compound 8 µM) was 0.772, the relative viability ([3]; first compound 0.253 µM) was 1.4 and the relative viability ([3]; first compound 0.8 µM) was 0.971. For the same cell line, the relative viability ([3]; first compound 2.53 µM) was 0.888 and the relative viability ([3]; first compound 8 µM) was 0.993.

For NCI-H1648, the relative viability ([1]; first compound 10 µM) was 0.474, the relative viability ([1]; first compound 31.62 µM) was 0.656 and the relative viability ([1]; first compound 100 µM) was 0.859. It also gave a relative viability ([1]; first compound 316.23 µM) of 0.706, a relative viability ([1]; first compound 1000 µM) of 0.742 and a relative viability ([2]; first compound 0.08 µM) of 0.273. It also gave a relative viability ([2]; first compound 0.253 µM) of 0.218, a relative viability ([2]; first compound 0.8 µM) of 0.328 and a relative viability ([2]; first compound 2.53 µM) of 0.273. For the same cell line, the relative viability ([2]; first compound 8 µM) was 0.274.

NCI-H1623 gave a relative viability ([1]; first compound 10 µM) of 0.363, a relative viability ([1]; first compound 31.62 µM) of 0.413 and a relative viability ([1]; first compound 100 µM) of 0.452. It also gave a relative viability ([1]; first compound 316.23 µM) of 0.337 and a relative viability ([1]; first compound 1000 µM) of 0.452.

NCI-H1563 gave a relative viability ([4]; first compound 0.08 µM) of 1.28, a relative viability ([4]; first compound 0.253 µM) of 1.22 and a relative viability ([4]; first compound 0.8 µM) of 1.13. The relative viability ([4]; first compound 2.53 µM) was 1.12 and the relative viability ([4]; first compound 8 µM) was 1.03.

For NCI-H1703, the relative viability ([3]; first compound 0.08 µM) was 0.996, the relative viability ([3]; first compound 0.253 µM) was 0.731 and the relative viability ([3]; first compound 0.8 µM) was 0.357. The relative viability ([3]; first compound 2.53 µM) was 0.188, the relative viability ([3]; first compound 8 µM) was 0.205 and the relative viability ([4]; first compound 0.08 µM) was 0.458. For the same cell line, the relative viability ([4]; first compound 0.253 µM) was 0.657, the relative viability ([4]; first compound 0.8 µM) was 0.441 and the relative viability ([4]; first compound 2.53 µM) was 0.0986. For the same cell line, the relative viability ([4]; first compound 8 µM) was 0.132.

NCI-H1299 gave a relative viability ([3]; first compound 0.08 µM) of 1.06, a relative viability ([3]; first compound 0.253 µM) of 1.05 and a relative viability ([3]; first compound 0.8 µM) of 1.03. The relative viability ([3]; first compound 2.53 µM) was 1.05, the relative viability ([3]; first compound 8 µM) was 0.937 and the relative viability ([4]; first compound 0.08 µM) was 0.989. It also gave a relative viability ([4]; first compound 0.253 µM) of 0.984, a relative viability ([4]; first compound 0.8 µM) of 0.958 and a relative viability ([4]; first compound 2.53 µM) of 0.853. It also gave a relative viability ([4]; first compound 8 µM) of 0.77.

NCI-H522 gave a relative viability ([1]; first compound 10 µM) of 0.68, a relative viability ([1]; first compound 31.62 µM) of 0.695 and a relative viability ([1]; first compound 100 µM) of 0.693. The relative viability ([1]; first compound 316.23 µM) was 0.609, the relative viability ([1]; first compound 1000 µM) was 0.764 and the relative viability ([2]; first compound 0.08 µM) was 1.03. It also gave a relative viability ([2]; first compound 0.253 µM) of 1.18, a relative viability ([2]; first compound 0.8 µM) of 1.06 and a relative viability ([2]; first compound 2.53 µM) of 0.928. For the same cell line, the relative viability ([2]; first compound 8 µM) was 0.903.

For NCI-H2170, the relative viability ([1]; first compound 10 µM) was 0.731, the relative viability ([1]; first compound 31.62 µM) was 0.733 and the relative viability ([1]; first compound 100 µM) was 0.779. For the same cell line, the relative viability ([1]; first compound 316.23 µM) was 0.758, the relative viability ([1]; first compound 1000 µM) was 0.693 and the relative viability ([2]; first compound 0.08 µM) was 0.387. For the same cell line, the relative viability ([2]; first compound 0.253 µM) was 0.382, the relative viability ([2]; first compound 0.8 µM) was 0.362 and the relative viability ([2]; first compound 2.53 µM) was 0.379. The relative viability ([2]; first compound 8 µM) was 0.298, the relative viability ([3]; first compound 0.08 µM) was 0.617 and the relative viability ([3]; first compound 0.253 µM) was 0.646. It also gave a relative viability ([3]; first compound 0.8 µM) of 0.568, a relative viability ([3]; first compound 2.53 µM) of 0.599 and a relative viability ([3]; first compound 8 µM) of 0.498.

In the case of NCI-H2342, the relative viability ([1]; first compound 10 µM) is reported as 0.507, the relative viability ([1]; first compound 31.62 µM) is reported as 0.447 and the relative viability ([1]; first compound 100 µM) is reported as 0.618. It also gave a relative viability ([1]; first compound 316.23 µM) of 0.35, a relative viability ([1]; first compound 1000 µM) of 0.276 and a relative viability ([2]; first compound 0.08 µM) of 0.497. It also gave a relative viability ([2]; first compound 0.253 µM) of 0.524, a relative viability ([2]; first compound 0.8 µM) of 0.49 and a relative viability ([2]; first compound 2.53 µM) of 0.498. The relative viability ([2]; first compound 8 µM) was 0.572.

For A549, the relative viability ([3]; first compound 0.08 µM) was 1.18, the relative viability ([3]; first compound 0.253 µM) was 1.34 and the relative viability ([3]; first compound 0.8 µM) was 1.22. For the same cell line, the relative viability ([3]; first compound 2.53 µM) was 1.19, the relative viability ([3]; first compound 8 µM) was 1.02 and the relative viability ([4]; first compound 0.08 µM) was 0.534. It also gave a relative viability ([4]; first compound 0.253 µM) of 0.647, a relative viability ([4]; first compound 0.8 µM) of 0.686 and a relative viability ([4]; first compound 2.53 µM) of 0.649. For the same cell line, the relative viability ([4]; first compound 8 µM) was 0.563.
